Measured values as given in patent publication US20250064990A1, “METHODS OF SCREENING FOR VMAT2 INHIBITORS” (Neurocrine Biosciences, Inc., priority 2021, published 2025).

Target: VMAT2 (Homo sapiens, UniProt Q05940)
Experiment: VMAT2 target occupancy of single oral doses of NBI-750142 in healthy adult male subjects, [^18F]AV-133 PET
Type: in vivo
Parameters: from tissue; host or cells: brain (caudate, putamen, midbrain) of living healthy adult male subjects
Settings: for NBI-750142 T1 Occ / [^18F]AV-133 BPND T1: T1 ([…] post dose); for NBI-750142 T2 Occ / [^18F]AV-133 BPND T2: T2 (18 h post dose)
Description: This study was conducted to evaluate the brain penetration and target engagement of VMAT2 after single oral doses of NBI-750142 in healthy subjects. This PET study assessed the engagement of NBI-750142 with VMAT2 in vivo at two time-points after dosing. A sequential-cohort design allowed for the safety, target-occupancy, and available pharmacokinetic (PK) data from each prior cohort to be evaluated before selection of the dose level for the next cohort. A range of NBI-750142 doses (max. 200 mg) were studied to explore the relationship between NBI-750142 plasma concentrations and engagement of VMAT2 in selected brain regions.
This was a Phase 1 single-center, open-label, single-dose, target occupancy study of NBI-750142 in up to 12 healthy male subjects using [^18F]AV-133 PET imaging. […] A total of 12 subjects completed the study. Subjects enrolled in the study were required to report to the clinical research site for 4 separate occasions, detailed below.
Two subjects were initially enrolled in each dose cohort. Each subject received one brain structural magnetic resonance imaging (MRI) scan during screening and up to 3 [^18F]AV-133 PET scans (1 baseline and up to 2 follow-up scans after receiving a single dose of NBI-750142). Subjects enrolled in the first cohort received a single dose of 100 mg of NBI-750142 orally on Day 1. PET scans occurred on Day 1 at approximately 1.5 hours post NBI-750142 dose and on Day 2 at approximately 18 hours post NBI-750142 dose. Subjects were then discharged from the study center after all Day 3 procedures and assessments were completed.
Subjects were administered a single dose of [^18F]AV-133 intravenously over 3 minutes using an infusion pump (approximately 3.33 mL per minute) through a venous catheter followed by a 10 mL saline flush. Dynamic PET imaging of the brain was acquired over 120 min following radiotracer injection on a Siemens Biograph 6 PET/CT camera according to the following protocol: • CT scan of the head • [^18F]AV-133 injection (T=0 min) • Emission scan: 6×30 sec, 4×1 min, 4×2 min, 21×5 min (0-120 min)
Reconstructed PET imaging data volumes were transferred to the image processing PMOD software package (PMOD Technologies, Zurich, Switzerland) where the images were motion and decay corrected, realigned onto the subject MRI and subsequently normalized into the standard MNI (Montreal Neurological Institute) space where volumes of interest (VOIs) were defined from a template (see e.g., Hammers et al, Adult brain maximum probability map (“Hammersmith atlas”; n30r83) in MNI space. 2008). The subject MRI was segmented into grey matter, white matter, and CSF maps. Average activity concentration (kBq/cc) within each VOI, constrained to grey matter voxels for cortical regions, were determined and time activity curves (TACs) were generated. TACs were extracted from the following VOIs: caudate and putamen (striatum), midbrain, cerebellar and occipital cortices. TACs and were expressed in standard uptake value (SUV) units (g/mL) by normalizing with the weight of the subject and the injected dose. The occipital cortex was used as a reference region to normalize activity in target regions to generate SUVr images. For visualization, standard uptake value ratio (SUVr) images were computed between 60-120 min. Non-displaceable binding potential (BPND), the primary outcome measure, was estimated with noninvasive Logan graphical analysis (NI-LGA, t*=20 min) in caudate, putamen and midbrain using the occipital cortex as the reference region. Percent measured occupancy (OM) of NBI-750142 (drug) by region was computed according to the Equation 3-1 at each of the post-dose timepoints, T1 (1.5 h post dose) and T2 (18 h post dose).
Post-hoc exploratory analysis applied an Upregulation model (Equation 3-3), in order to account for the apparent ‘negative occupancy’ values observed at T2 (BPND values at T2 were unexpectedly higher than corresponding BPND values at baseline). […]

[1] = Cohort 1, 100 mg, Subject 1, Caudate
[2] = Cohort 1, 100 mg, Subject 1, Midbrain
[3] = Cohort 1, 100 mg, Subject 1, Putamen
[4] = Cohort 1, 100 mg, Subject 2, Caudate
[5] = Cohort 1, 100 mg, Subject 2, Midbrain
[6] = Cohort 1, 100 mg, Subject 2, Putamen
[7] = Cohort 2, 200 mg, Subject 1, Caudate
[8] = Cohort 2, 200 mg, Subject 1, Midbrain
[9] = Cohort 2, 200 mg, Subject 1, Putamen
[10] = Cohort 2, 200 mg, Subject 2, Caudate
[11] = Cohort 2, 200 mg, Subject 2, Midbrain
[12] = Cohort 2, 200 mg, Subject 2, Putamen
[13] = Cohort 3, 60 mg, Subject 1, Caudate
[14] = Cohort 3, 60 mg, Subject 1, Midbrain
[15] = Cohort 3, 60 mg, Subject 1, Putamen
[16] = Cohort 3, 60 mg, Subject 2, Caudate
[17] = Cohort 3, 60 mg, Subject 2, Midbrain
[18] = Cohort 3, 60 mg, Subject 2, Putamen
[19] = Cohort 4, 60 mg, Subject 1, Caudate

Sequence of VMAT2 (Q05940 whole entry): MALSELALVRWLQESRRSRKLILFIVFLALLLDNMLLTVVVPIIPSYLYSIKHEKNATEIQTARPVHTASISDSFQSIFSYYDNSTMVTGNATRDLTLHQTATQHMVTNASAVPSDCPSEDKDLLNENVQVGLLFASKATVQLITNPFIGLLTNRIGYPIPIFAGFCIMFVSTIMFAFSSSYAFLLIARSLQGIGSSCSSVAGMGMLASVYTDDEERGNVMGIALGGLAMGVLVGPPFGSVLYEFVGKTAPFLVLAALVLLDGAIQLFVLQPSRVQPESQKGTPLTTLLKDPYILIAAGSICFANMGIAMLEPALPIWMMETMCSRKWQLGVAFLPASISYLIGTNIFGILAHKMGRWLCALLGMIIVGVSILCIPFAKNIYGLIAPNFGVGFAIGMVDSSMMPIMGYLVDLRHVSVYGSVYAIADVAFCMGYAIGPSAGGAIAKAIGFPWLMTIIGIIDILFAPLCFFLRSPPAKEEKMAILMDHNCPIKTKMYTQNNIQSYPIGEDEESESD

COc1cc2c(cc1OC)[C@H]1CN(C)[C@H](CC(C)(C)C)CN1CC2 [NBI-750142]
[^18F]AV-133 striatal uptake at T1 vs baseline (10 mg, cohorts 5A and 5B): did not show reduction in uptake | [^18F]AV-133 striatal uptake at T1 vs baseline (60 mg, cohorts 3 and 4): showed variability between subjects | [^18F]AV-133 striatal uptake at T1 vs baseline (100 mg and 200 mg doses, both subjects): markedly reduced uptake | NBI-750142 T1 Occ [1]: 72% | [^18F]AV-133 BPND T1 [1]: 0.34 | NBI-750142 T2 Occ [1]: 3% | [^18F]AV-133 BPND T2 [1]: 1.15 | NBI-750142 T1 Occ [2]: 59% | [^18F]AV-133 BPND T1 [2]: 0.15 | NBI-750142 T2 Occ [2]: 5% | [^18F]AV-133 BPND T2 [2]: 0.34 | NBI-750142 T1 Occ [3]: 54% | [^18F]AV-133 BPND T1 [3]: 0.95 | NBI-750142 T2 Occ [3]: −2% | [^18F]AV-133 BPND T2 [3]: 2.11 | NBI-750142 T1 Occ [4]: 80% | [^18F]AV-133 BPND T1 [4]: 0.38 | NBI-750142 T2 Occ [4]: 15% | [^18F]AV-133 BPND T2 [4]: 1.60 | NBI-750142 T1 Occ [5]: 60% | [^18F]AV-133 BPND T1 [5]: 0.20 | NBI-750142 T2 Occ [5]: 30% | [^18F]AV-133 BPND T2 [5]: 0.36 | NBI-750142 T1 Occ [6]: 73% | [^18F]AV-133 BPND T1 [6]: 0.66 | NBI-750142 T2 Occ [6]: 13% | [^18F]AV-133 BPND T2 [6]: 2.09 | Occupancy at T2 in striatum (Cohort 1 at 100 mg, subject 1, 18 h post dose): 1% | Occupancy at T2 in striatum (Cohort 1 at 100 mg, subject 2, 18 h post dose): 14% | NBI-750142 T1 Occ [7]: 75% | [^18F]AV-133 BPND T1 [7]: 0.40 | NBI-750142 T2 Occ [7]: −30% | [^18F]AV-133 BPND T2 [7]: 2.06 | NBI-750142 T1 Occ [8]: 63% | [^18F]AV-133 BPND T1 [8]: 0.14 | NBI-750142 T2 Occ [8]: −33% | [^18F]AV-133 BPND T2 [8]: 0.49 | NBI-750142 T1 Occ [9]: 69% | [^18F]AV-133 BPND T1 [9]: 0.74 | NBI-750142 T2 Occ [9]: −26% | [^18F]AV-133 BPND T2 [9]: 3.00 | NBI-750142 T1 Occ [10]: 72% | [^18F]AV-133 BPND T1 [10]: 0.51 | NBI-750142 T2 Occ [10]: −7% | [^18F]AV-133 BPND T2 [10]: 1.91 | NBI-750142 T1 Occ [11]: 60% | [^18F]AV-133 BPND T1 [11]: 0.23 | NBI-750142 T2 Occ [11]: 7% | [^18F]AV-133 BPND T2 [11]: 0.53 | NBI-750142 T1 Occ [12]: 67% | [^18F]AV-133 BPND T1 [12]: 0.88 | NBI-750142 T2 Occ [12]: −5% | [^18F]AV-133 BPND T2 [12]: 2.81 | Occupancy at T2 in striatum (Cohort 2 at 200 mg, subject 1, 18 h post dose): −28% | Occupancy at T2 in striatum (Cohort 2 at 200 mg, subject 2, 18 h post dose): −6% | NBI-750142 T1 Occ [13]: 37% | [^18F]AV-133 BPND T1 [13]: 1.04 | NBI-750142 T2 Occ [13]: −15% | [^18F]AV-133 BPND T2 [13]: 1.93 | NBI-750142 T1 Occ [14]: 47% | [^18F]AV-133 BPND T1 [14]: 0.20 | NBI-750142 T2 Occ [14]: −5% | [^18F]AV-133 BPND T2 [14]: 0.39 | NBI-750142 T1 Occ [15]: 34% | [^18F]AV-133 BPND T1 [15]: 1.31 | NBI-750142 T2 Occ [15]: −12% | [^18F]AV-133 BPND T2 [15]: 2.22 | NBI-750142 T1 Occ [16]: 6% | [^18F]AV-133 BPND T1 [16]: 1.62 | NBI-750142 T2 Occ [16]: −20% | [^18F]AV-133 BPND T2 [16]: 2.07 | NBI-750142 T1 Occ [17]: 16% | [^18F]AV-133 BPND T1 [17]: 0.44 | NBI-750142 T2 Occ [17]: −22% | [^18F]AV-133 BPND T2 [17]: 0.64 | NBI-750142 T1 Occ [18]: 3% | [^18F]AV-133 BPND T1 [18]: 2.14 | NBI-750142 T2 Occ [18]: −22% | [^18F]AV-133 BPND T2 [18]: 2.70 | Occupancy at T2 in striatum (Cohort 3 at 60 mg, subject 1, 18 h post dose): −14% | Occupancy at T2 in striatum (Cohort 3 at 60 mg, subject 2, 18 h post dose): −21% | NBI-750142 T1 Occ [19]: 50% | [^18F]AV-133 BPND T1 [19]: 0.78 | NBI-750142 T2 Occ [19]: −8%
